According to patent publication US20030199692A1, “Propanoic acid derivatives that inhibit the binding of integrins to their receptors” (priority 1999, published 2003):

Target: T1, α4β1 integrin (Homo sapiens, UniProt P05556+P13612)
T1 construct: endogenous in cells; host or cells: Ramos cells
Assay: Inhibition of adhesion of calcein AM-labeled Ramos cells to CS1 (fibronectin) peptide-conjugated ovalbumin
Format: cell-based
Settings: for IC50: Ramos cell adhesion to CS1-conjugated ovalbumin, 30 minutes at 37° C.; for inhibition at 100 µM: Ramos, compound at a concentration of 100 μM, read-out: % A (percent inhibition of cell adhesion)
Description: The ability of compounds of the present invention to inhibit binding is determined by a procedure in which a 26-amino acid peptide containing the CS1 sequence of fibronectin with an N-terminal Cys ([…]) was coupled to maleimide activated ovalbumin. Bovine serum albumin (BSA) and CS1 conjugated ovalbumin were coated onto 96-well polystyrene plates at 0.5 mg/ml in TBS (50 mM Tris, pH 7.5; 150 mM NaCl) at 4° C. for 16 hours. The plates were washed three times with TBS and blocked with TBS containing 3% BSA at room temperature for 4 hours. Blocked plates were washed three times in binding buffer (TBS; 1 mM MgCl2; 1 mM CaCl2; 1 mM MnCl2) prior to assay. Ramos cells fluorescently labeled with calcein AM were resuspended in binding buffer (10^7 cells/ml) and diluted 1:2 with same buffer with or without compound. The cells were added immediately to the wells (2.5×10^5 cells/well) and incubated for 30 minutes at 37° C. Following three washes with binding buffer, adherent cells were lysed and quantitated using a fluorometer. IC50 is defined as the dose required to give 50% inhibition. MS in Table 3 stands for Mass Spec. nd stands for not determined in the Tables. A stands for inhibition in Table 2, and the percent inhibition indicates the inhibition of cell adhesion when compound is included in the assay at a concentration of 100 μM. The lower the IC50 value and the greater the percentage of inhibition, the more efficient the compound is at prevention of cell adhesion.

T1 sequence (P13612 34-1032): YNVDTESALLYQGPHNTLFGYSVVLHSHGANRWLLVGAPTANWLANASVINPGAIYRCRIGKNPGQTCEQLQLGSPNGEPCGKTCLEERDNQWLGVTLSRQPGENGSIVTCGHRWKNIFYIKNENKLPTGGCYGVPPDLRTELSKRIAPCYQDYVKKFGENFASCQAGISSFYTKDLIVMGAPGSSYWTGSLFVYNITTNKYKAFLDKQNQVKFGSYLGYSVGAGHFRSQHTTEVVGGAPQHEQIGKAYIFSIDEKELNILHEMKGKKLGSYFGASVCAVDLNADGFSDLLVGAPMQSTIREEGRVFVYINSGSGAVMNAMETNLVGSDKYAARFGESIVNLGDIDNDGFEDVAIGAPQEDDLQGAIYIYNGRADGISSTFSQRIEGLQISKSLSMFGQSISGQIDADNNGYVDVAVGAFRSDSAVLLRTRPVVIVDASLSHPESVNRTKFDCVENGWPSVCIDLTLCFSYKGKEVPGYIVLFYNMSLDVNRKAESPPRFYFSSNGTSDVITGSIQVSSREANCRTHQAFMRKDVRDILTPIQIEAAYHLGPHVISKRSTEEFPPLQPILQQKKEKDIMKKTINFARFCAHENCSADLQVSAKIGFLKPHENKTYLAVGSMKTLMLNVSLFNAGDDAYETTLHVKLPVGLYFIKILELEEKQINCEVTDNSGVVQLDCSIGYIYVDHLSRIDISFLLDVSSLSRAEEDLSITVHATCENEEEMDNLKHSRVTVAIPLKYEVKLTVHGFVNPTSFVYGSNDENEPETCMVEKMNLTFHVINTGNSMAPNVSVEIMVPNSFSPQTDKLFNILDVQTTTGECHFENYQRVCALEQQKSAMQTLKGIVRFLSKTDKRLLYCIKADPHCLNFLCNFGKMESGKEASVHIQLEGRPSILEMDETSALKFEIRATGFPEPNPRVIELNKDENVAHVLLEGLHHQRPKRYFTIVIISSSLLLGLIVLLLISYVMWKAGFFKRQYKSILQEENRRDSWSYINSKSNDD
T1 sequence (P05556 21-798): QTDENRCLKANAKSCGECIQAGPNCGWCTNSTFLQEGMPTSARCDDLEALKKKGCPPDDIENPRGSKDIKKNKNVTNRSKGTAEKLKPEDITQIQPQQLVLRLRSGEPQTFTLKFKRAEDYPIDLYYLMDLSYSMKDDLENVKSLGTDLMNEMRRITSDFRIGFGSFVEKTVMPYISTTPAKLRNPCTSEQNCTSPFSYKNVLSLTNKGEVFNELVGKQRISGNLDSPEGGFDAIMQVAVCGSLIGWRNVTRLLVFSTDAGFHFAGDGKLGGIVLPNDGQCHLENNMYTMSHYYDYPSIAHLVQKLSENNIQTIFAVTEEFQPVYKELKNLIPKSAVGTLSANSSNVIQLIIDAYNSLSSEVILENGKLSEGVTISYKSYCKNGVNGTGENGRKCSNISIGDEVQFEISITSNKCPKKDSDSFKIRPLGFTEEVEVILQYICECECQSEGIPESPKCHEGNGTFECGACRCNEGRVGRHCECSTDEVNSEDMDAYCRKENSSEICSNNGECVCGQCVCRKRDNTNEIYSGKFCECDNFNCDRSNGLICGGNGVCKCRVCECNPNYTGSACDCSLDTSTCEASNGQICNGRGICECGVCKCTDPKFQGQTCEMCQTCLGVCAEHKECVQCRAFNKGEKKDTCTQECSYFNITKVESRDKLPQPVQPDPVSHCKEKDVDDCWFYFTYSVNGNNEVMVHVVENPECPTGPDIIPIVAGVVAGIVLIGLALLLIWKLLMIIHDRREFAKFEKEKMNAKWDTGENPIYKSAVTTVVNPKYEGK

| IC50 (Table 3) | SMILES | further results |
| --- | --- | --- |
|  | CCCCC(C(=O)N[C@@H](CC(=O)O)c1ccc2c(c1)OCO2)n1cc(C)cc(Cc2ccccc2)c1=O (mixture of isomers) [Compound 8, (3S)-3-(1,3-benzodioxol-5-yl)-3-((2R,S)-2-(3-benzyl-5-methyl-2-oxo-1(2H)-pyridinyl)hexanoylamino)propanoic acid] | IC50 (Table 1): 7 nM |
|  | CCCCC(C(=O)N[C@@H](CC(=O)O)c1ccc2c(c1)CCO2)n1cc(C)cc(Cc2ccccc2)c1=O (mixture of isomers) [Compound 12, (3S)-3-((2R,S)-2-(3-benzyl-5-methyl-2-oxo-1(2H)-pyridinyl)hexanoylamino)-3-(2,3-dihydro-1-benzofuran-5-yl)propanoic acid] | IC50 (Table 1): 40 nM |
|  | CCCCC(C(=O)N[C@@H](CC(=O)O)c1ccc(C)cc1)n1cc(C)cc(Cc2ccccc2)c1=O (mixture of isomers) [Compound 13, (3S)-3-((2R,S)-2-(3-benzyl-5-methyl-2-oxo-1(2H)-pyridinyl)hexanoylamino)-3-(4-methylphenyl)propanoic acid] | IC50 (Table 1): 70 nM |
|  | CCCCC(C(=O)N[C@@H](CC(=O)O)c1ccc(F)cc1)n1cc(C)cc(Cc2ccccc2)c1=O (mixture of isomers) [Compound 14, (3S)-3-((2R,S)-2-(3-benzyl-5-methyl-2-oxo-1(2H)-pyridinyl)hexanoylamino)-3-(4-fluorophenyl)propanoic acid] | IC50 (Table 1): 150 nM |
|  | CCCCC(C(=O)N[C@@H](CC(=O)O)c1ccc2c(c1)OCO2)n1cc(C)cc(Cc2ccc(OC)cc2)c1=O (mixture of isomers) [Compound 15, (3S)-3-(1,3-benzodioxol-5-yl)-3-((2R,S)-2-(3-(4-methoxybenzyl)-5-methyl-2-oxo-1(2H)-pyridinyl)hexanoylamino)propanoic acid] | IC50 (Table 1): 30 nM |
|  | CCCCC(C(=O)N[C@@H](CC(=O)O)c1ccc2c(c1)OCO2)n1cc(C)cc(Cc2ccc(C)cc2)c1=O (mixture of isomers) [Compound 16, (3S)-3-(1,3-benzodioxol-5-yl)-3-((2R,S)-2-(3-(4-methylbenzyl)-5-methyl-2-oxo-1(2H)-pyridinyl)hexanoylamino)propanoic acid] | IC50 (Table 1): 35 nM |
|  | CCCCC(C(=O)N[C@@H](CC(=O)O)c1ccc2c(c1)OCO2)n1cc(C)cc(Cc2ccc(F)cc2)c1=O (mixture of isomers) [Compound 17, (3S)-3-(1,3-benzodioxol-5-yl)-3-((2R,S)-2-(3-(4-fluorobenzyl)-5-methyl-2-oxo-1(2H)-pyridinyl)hexanoylamino)propanoic acid] | IC50 (Table 1): 60 nM |
|  | CCCCC(C(=O)N[C@@H](CC(=O)O)c1ccc2c(c1)OCO2)n1cc(C)cc(Cc2cccc(Cl)c2)c1=O (mixture of isomers) [Compound 19, (3S)-3-(1,3-benzodioxol-5-yl)-3-((2R,S)-2-(3-(3-chlorobenzyl)-5-methyl-2-oxo-1(2H)-pyridinyl)hexanoylamino)propanoic acid] | IC50 (Table 1): 6 nM |
|  | CCCCC(C(=O)N[C@@H](C(=O)O)c1ccccc1)n1cc(C)cc(Cc2ccccc2)c1=O (stereo partly drawn) [(2R)-2-({2-[5-methyl-2-oxo-3-(phenylmethyl)-1(2H)-pyridinyl]hexanoyl}amino)-2-phenylethanoic acid] | IC50 (Table 4): > 10000 nM |
|  | CCCCC(C(=O)N[C@H](Cc1ccccc1)C(=O)O)n1cc(C)cc(Cc2ccccc2)c1=O (stereo partly drawn) [(2R)-2-({2-[5-methyl-2-oxo-3-(phenylmethyl)-1(2H)-pyridinyl]hexanoyl}amino)-3-phenylpropanoic acid] | IC50 (Table 4): 5000 nM |
|  | CCCCC(C(=O)N[C@@H](Cc1ccccc1)C(=O)O)n1cc(C)cc(Cc2ccccc2)c1=O (stereo partly drawn) [(2S)-2-({2-[5-methyl-2-oxo-3-phenylmethyl)-1(2H)-pyridinyl]hexanoyl}amino)-3-phenylpropanoic acid] | IC50 (Table 4): > 10000 nM |
| 40 nM | CCCCC(C(=O)N[C@@H](CC(=O)O)c1ccc2c(c1)OCO2)n1cc(Cc2ccccc2)ccc1=O (stereo partly drawn) [(3S)-3-(1,3-Benzodioxol-5-yl)-3-({2-[2-oxo-5-(phenylmethyl)-1(2H)-pyridinyl]hexanoyl}amino)propanoic acid] |  |
| 50000 nM | O=C(O)C[C@H](NC(=O)C1(n2cccc(Cc3ccccc3)c2=O)CCCCC1)c1ccc2c(c1)OCO2 [(3S)-3-(1,3-Benzodioxol-5-yl)-3-[({1-[2-oxo-3-(phenylmethyl)-1(2H)-pyridinyl]cyclohexyl}carbonyl)amino]propanoic acid] |  |
|  | CCCC[C@@H](C(=O)N[C@@H](CC(=O)O)c1ccc2c(c1)OCO2)N1CCCN(Cc2cccs2)C1=O [(3S)-3-(1,3-benzodioxol-5-yl)-3-(((2S)-2-(2-oxo-3-(2-thienylmethyl)tetrahydro-1(2H)-pyrimidinyl)hexanoyl)amino)propanoic acid] | inhibition at 100 µM (Table 2): 100%; IC50 (Table 2): 5 nM |
|  | CCCC[C@@H](C(=O)N[C@@H](CC(=O)O)c1ccc2c(c1)OCO2)N1CCC(c2cccs2)N(Cc2cccs2)C1=O (stereo partly drawn) [(3S)-3-(1,3-benzodioxol-5-yl)-3-(((2S)-2-(2-oxo-4-(2-thienyl)-3-(2-thienylmethyl)tetrahydro-1(2H)-pyrimidinyl)hexanoyl)amino)propanoic acid] | inhibition at 100 µM (Table 2): 100%; IC50 (Table 2): 50 nM |
| 450 nM | O=C(O)C[C@H](NC(=O)Cn1cccc(Cc2ccccc2)c1=O)c1ccc2c(c1)OCO2 [(3S)-3-(1,3-benzodioxol-5-yl)-3-({2-[2-oxo-3-(phenylmethyl)-1(2H)-pyridinyl]acetyl}amino)propanoic acid] |  |
| 30 nM | CCC(C(=O)N[C@@H](CC(=O)O)c1ccc2c(c1)OCO2)n1cccc(Cc2ccccc2)c1=O (stereo partly drawn) [(3S)-3-(1,3-benzodioxol-5-yl)-3-({2-[2-oxo-3-(phenylmethyl)-1(2H)-pyridinyl]butanoyl}amino)propanoic acid] |  |
| 60 nM | CCCC(C(=O)N[C@@H](CC(=O)O)c1ccc2c(c1)OCO2)n1cccc(Cc2ccccc2)c1=O (stereo partly drawn) [(3S)-3-(1,3-benzodioxol-5-yl)-3-({2-[2-oxo-3-(phenylmethyl)-1(2H)-pyridinyl]pentanoyl}amino)propanoic acid] |  |
| 2000 nM | CCCCC(C(=O)N[C@@H](CC(=O)O)c1ccc2c(c1)OCO2)n1c(=O)c(Cc2ccccc2)cc2ccccc21 (stereo partly drawn) [(3S)-3-(1,3-benzodioxol-5-yl)-3-({2-[2-oxo-3-(phenylmethyl)-1(2H)-quinolinyl]hexanoyl}amino)propanoic acid] |  |
| 200 nM | O=C(O)C[C@H](NC(=O)Cn1c(=O)n(Cc2ccccc2)c2ccccc21)c1ccc2c(c1)OCO2 [(3S)-3-(1,3-benzodioxol-5-yl)-3-({2-[2-oxo-3-(phenylmethyl)-2,3-dihydro-1H-benzimidazol-1-yl]acetyl}amino)propanoic acid] |  |
| 70 nM | CCCCC(C(=O)N[C@@H](CC(=O)O)c1ccc2c(c1)OCO2)n1c(=O)n(Cc2ccccc2)c2ccccc21 (stereo partly drawn) [(3S)-3-(1,3-benzodioxol-5-yl)-3-({2-[2-oxo-3-(phenylmethyl)-2,3-dihydro-1H-benzimidazol-1-yl]hexanoyl}amino)propanoic acid] |  |
| 60 nM | CCCCC(C(=O)N[C@@H](CC(=O)O)c1ccc2c(c1)OCO2)n1ccn(Cc2ccccc2)c1=O (stereo partly drawn) [(3S)-3-(1,3-benzodioxol-5-yl)-3-({2-[2-oxo-3-(phenylmethyl)-2,3-dihydro-1H-imidazol-1-yl]hexanoyl}amino)propanoic acid] |  |
| 400 nM | CCCCC(C(=O)N[C@@H](CC(=O)O)c1ccc2c(c1)OCO2)N1C(=O)N(Cc2ccccc2)Cc2ccccc21 (stereo partly drawn) [(3S)-3-(1,3-benzodioxol-5-yl)-3-({2-[2-oxo-3-(phenylmethyl)-3,4-dihydro-1(2H)-quinazolinyl]hexanoyl}amino)propanoic acid] |  |
| 1300 nM | CCCCC(C(=O)N[C@@H](CC(=O)O)c1ccc2c(c1)OCO2)n1cccc(NCc2cccs2)c1=O (stereo partly drawn) [(3S)-3-(1,3-benzodioxol-5-yl)-3-({2-[2-oxo-3-[(2-thiophenylmethyl)amino]-1(2H)-pyridinyl]hexanoyl}amino)propanoic acid] |  |
| > 100000 nM | O=C(O)C[C@H](NC(=O)Cc1cccc(Oc2ccccc2)c1)c1ccc2c(c1)OCO2 [(3S)-3-(1,3-benzodioxol-5-yl)-3-({2-[3-(phenyloxy)phenyl]acetyl}amimo)-propanoic acid] |  |
| 10 nM | CCCCC(C(=O)N[C@@H](CC(=O)O)c1ccc2c(c1)OCO2)n1cc(C)cc(Cc2ccccc2Cl)c1=O (stereo partly drawn) [(3S)-3-(1,3-benzodioxol-5-yl)-3-({2-[3-[(2-chlorophenyl)methyl]-5-methyl-2-oxo-1(2H)-pyridinyl]hexanoyl}amino)propanoic acid] |  |
| 60 nM | CCCCC(C(=O)N[C@@H](CC(=O)O)c1ccc2c(c1)OCO2)n1nc(C)cc(Cc2ccccc2)c1=O (stereo partly drawn) [(3S)-3-(1,3-benzodioxol-5-yl)-3-({2-[3-methyl-6-oxo-5-(phenylmethyl)-1(6H)-pyridazinyl]hexanoyl}amino)propanoic acid] |  |
| 100 nM | CCCC[C@@H](C(=O)N[C@@H](CC(=O)O)c1ccc2c(c1)OCO2)n1c(=O)c2ccccc2n(Cc2ccccc2)c1=O [(3S)-3-(1,3-benzodioxol-5-yl)-3-({(2S)-2-[2,4-dioxo-1-(phenylmethyl)-1,4-dihydro-3(2H)-quinazolinyl]hexanoyl}amino)propanoic acid] |  |
